Several values for one entry are separate records, joined by “and”; a condition that tells them apart may be missing. Equal entries are not always repeated. Where two headings read alike, the source gives them in different places.
Key:
[1] = target: T1, recombinant rat FAAH (rFAAH) (Rattus norvegicus, UniProt P97612); assay: FAAH enzyme activity assay (AEA hydrolysis, HPLC-MS/MS); format: biochemical; conditions: for FAAH inhibitory activity (in words): rFAAH enzyme assay; for fold decrease in FAAH inhibitory potency vs. compound 1: compared with parent compound 1
T1 construct: expressed in transfected cells; host or cells: HEK293-rFAAH cells (homogenate supernatant)
T1 sequence (P97612 1-579): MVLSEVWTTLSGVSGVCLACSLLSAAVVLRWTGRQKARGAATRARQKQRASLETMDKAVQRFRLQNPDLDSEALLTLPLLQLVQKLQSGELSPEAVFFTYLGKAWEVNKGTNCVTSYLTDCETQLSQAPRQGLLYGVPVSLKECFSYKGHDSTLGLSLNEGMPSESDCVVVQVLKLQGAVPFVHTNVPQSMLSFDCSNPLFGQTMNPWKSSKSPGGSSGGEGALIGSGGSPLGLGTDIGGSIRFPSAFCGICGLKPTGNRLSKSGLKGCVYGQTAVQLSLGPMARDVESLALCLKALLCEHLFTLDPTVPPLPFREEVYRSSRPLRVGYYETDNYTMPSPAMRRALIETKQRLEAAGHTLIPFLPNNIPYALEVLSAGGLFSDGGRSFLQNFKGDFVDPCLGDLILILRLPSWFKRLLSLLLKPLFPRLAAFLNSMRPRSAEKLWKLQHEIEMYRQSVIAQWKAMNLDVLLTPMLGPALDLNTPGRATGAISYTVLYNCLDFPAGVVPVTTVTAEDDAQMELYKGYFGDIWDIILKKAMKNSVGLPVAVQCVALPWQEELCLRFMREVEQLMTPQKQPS
Procedure: The substituted 2,4-dioxopyrimidine-1-carboxamides and the related analogues described above were subjected to in vitro biological evaluation toward recombinant rat FAAH derived from HEK293-rFAAH cell. Enzyme assays were performed at 37 °C by incubating 30 µg of rFAAH protein with 25 μM anandamide as substrate in Tris-HCl buffer containing fatty acid-free BSA (0.05%). When the reactions were terminated, 1 nmol heptadecanoic acid (17:0 FFA) was added as an internal standard. […] The hydrolyzate of AEA (arachidonic acid), together with heptadecanoic acid was detected in HPLC/MS/MS to estimate the potency of rFAAH inhibition according to the methods previously described.
The inhibition effects of uracil derivatives toward recombinant rat FAAH (rFAAH) were assessed by enzyme activity assay. HEK293-rFAAH cells were harvested, washed with PBS, sonicated in 20 mM Tris-HCl (pH 7.5) containing 0.32 M sucrose, and centrifuged at 800× g for 15 min at 4 °C. The supernatants were collected and protein concentrations were measured by BCA protein assay kit (Pierce, Shanghai, China). FAAH proteins (30 μg) were incubated at 37 °C for 30 min in Tris buffer (50 mM, pH = 8.0) containing fatty acid-free BSA (0.05%) and 25 μM AEA (Sigma-Aldrich, Shanghai, China) as substrate. The above reactions were stopped by adding 200 μL methanol containing 1 nmol heptadecanoic acid (17:0 FFA) as internal standard. The reaction mixture was extracted with 4 mL chloroform and then vortex for 1 min. Lipid layer was separated by centrifugation at 3000× g for 10 min and then transferred to a clean 10 mL V-bottom glass tube and dried under nitrogen (N2) flow. After redissolved with 1 mL CHCl3, the lipid solution went through the solid-phase extraction, and was eluted by methanol/chloroform (v/v, 1/9). The elution containing FAEs and FFAs was dried under N2, and reconstituted in 100 μL methanol for HPLC-MS/MS analysis.
Samples were detected by an ABI 3200 Q-Trap mass spectrometer (Applied Biosystems/MDS Sciex) equipped with 1100-LC system (Agilent, Shanghai, China). The mobile phase for FFAs detection was consisted of MeOH and ultra-pure H2O (pH = 7.4, each containing 0.25% acetic acid and 5 mmol/L ammonium acetate), and the elution condition was 95% methanol keeping for 3 min at a flow rate of 1.0 mL·min^−^1. The column temperature was kept at 40 °C. Ion detection was monitored by ESI negative mode. The molecular ions were monitored at m/z 303 for AA, and m/z 269 for C17:0 FFA. Inhibition curves and IC50 values of each compounds was calculated by GraphPad Prism (version 5.01, GraphPad Software Inc., San Diego, CA, USA).

[2] = as stated in abstract, read-out: IC50 (FAAH inhibition)
[3] = rFAAH protein 30 μg from HEK293-rFAAH cells, 25 μM anandamide, 37 °C, 30 min, Tris buffer pH 8.0, read-out: IC50 of FAAH Inhibition

Row | Compound | IC50 [1, 3] | other results
1 | CCCCCCNC(=O)N1CCC(=O)NC1=O [Compound 2, N-Hexyl-2,4-dioxotetrahydropyrimidine-1-carboxamide] | > 10000 nM | FAAH inhibitory activity (in words) [1]: no inhibitory activity
2 | CCCCCCCn1cc(F)c(=O)[nH]c1=O [Compound 20, 5-Fluoro-1-heptyl-2,4-dioxopyrimidine] | > 100000 nM | FAAH inhibitory activity (in words) [1]: not inhibited at all
3 | O=C(Nc1cn(C(=O)NCCc2ccccc2)c(=O)[nH]c1=O)OCc1ccccc1 [Compound 16, Benzyl (2,4-dioxo-1-{[(2-phenylethyl)amino]carbonyl}-1,2,3,4-tetrahydro-5-pyrimidinyl)carbamate (2H)-carboxamide] | 120 ± 30 nM | increase of FAAH inhibitory potency vs. compound 17 ([1]; compared with compound 17): about 10 times
4 | CCCCCCNC(=O)N1CCCNC1=O [Compound 3, N-Hexyl-2-oxotetrahydropyrimidine-1-carboxamide] | > 10000 nM | FAAH inhibitory activity (in words) [1]: loss of FAAH inhibitory activities
5 | O=C(NCCc1ccccc1)n1cc(O)c(=O)[nH]c1=O [Compound 18, 5-hydroxy-N-(2-phenylethyl)-2,4-dioxopyrimidine-1-carboxamide] | 540 ± 70 nM | –
6 | O=C(NCc1ccc(-c2ccccc2)cc1)n1ccc(=O)[nH]c1=O [Compound 14, N-[2-(4-Biphenyl)methyl]-2,4-dioxopyrimidine-1-carboxamide] | 53 ± 6 nM | IC50 [1, 2]: 53 nM
7 | CCCCCCNC(=O)n1c(C)cc(=O)[nH]c1=O [Compound 6, N-Hexyl-6-methyl-2,4-dioxopyrimidine-1-carboxamide] | 1270 ± 210 nM | fold decrease in FAAH inhibitory potency vs. compound 1 [1]: 8- to 10 fold
8 | Nc1cn(C(=O)NCCc2ccccc2)c(=O)[nH]c1=O [Compound 17, 5-Amino-N-(2-phenylethyl)-2,4-dioxopyrimidine-1-carboxamide] | 1330 ± 130 nM | –
9 | O=C(NCc1ccc2ccccc2c1)n1ccc(=O)[nH]c1=O [Compound 12] | – | melting point: 84 to 84.6 °C

More lines, main results first:

Row | IC50 [1, 3] | Compound | other results
10 | 21 ± 4 nM | O=C(NCCc1ccccc1)n1cc(C(F)(F)F)c(=O)[nH]c1=O [Compound 11, N-(2-Phenylethyl)-5-trifluoromethyl-2,4-dioxopyrimidine-1-carboxamide] | IC50 [1, 2]: 21 nM
11 | 250 ± 30 nM | CCCCCCNC(=O)n1cc(C)c(=O)[nH]c1=O [Compound 5, N-Hexyl-5-methyl-2,4-dioxopyrimidine-1-carboxamide] | fold decrease in FAAH inhibitory potency vs. compound 1 [1]: 2- to 3 fold
12 | 300 ± 70 nM | O=C(NCCc1ccccc1)n1ccc(=O)[nH]c1=O [Compound 7, N-(2-Phenylethyl)-2,4-dioxopyrimidine-1-carboxamide] | fold decrease in FAAH inhibitory potency vs. compound 1 [1]: 3 fold
13 | > 100000 nM | CCCCCCNC(=O)Cn1cc(F)c(=O)[nH]c1=O [Compound 21, 2-[5-Fluoro-2,4-dioxopyrimidinyl]-N-hexylacetamide] | FAAH inhibitory activity (in words) [1]: total loss of the FAAH inhibitory activity
14 | 530 nM and 531 nM | COc1cn(C(=O)NCCc2ccccc2)c(=O)[nH]c1=O [Compound 9, 5-Methoxy-N-(2-phenylethyl)-2,4-dioxopyrimidine-1-carboxamide] | –
15 | > 100000 nM | CCCCCCCn1ccc(=O)[nH]c1=O [Compound 19, 1-Heptyl-2,4-dioxopyrimidine] | FAAH inhibitory activity (in words) [1]: not inhibited at all
16 | 100 ± 10 nM | O=C(NCc1ccc(-c2ccccc2)cc1)n1cc(F)c(=O)[nH]c1=O [Compound 15, N-[2-(4-biphenyl)methyl]-5-fluoro-2,4-dioxo-pyrimidine-1-carboxamide] | fold less potent vs. compound 14 ([1]; compared with compound 14): 2 fold
17 | 110 ± 30 nM | CCCCCCNC(=O)n1ccc(=O)[nH]c1=O [Compound 1, N-Hexyl-2,4-dioxo-pyrimidine-1-carboxamide] | –
18 | 98 ± 10 nM | O=C(NCCc1ccccc1)n1cc(F)c(=O)[nH]c1=O [Compound 10, 5-Fluoro-N-(2-phenylethyl)-2,4-dioxopyrimidine-1-carboxamide] | –
19 | 1070 ± 140 nM | Cc1cn(C(=O)NCCc2ccccc2)c(=O)[nH]c1=O [Compound 8, 5-Methyl-N-(2-phenylethyl)-2,4-dioxopyrimidine-1-carboxamide] | –
20 | 860 ± 80 nM | CCCCCCNC(=O)n1ccc(=O)n(C)c1=O [Compound 4, N-Hexyl-3-methyl-2,4-dioxopyrimidine-1-carboxamide] | fold decrease in FAAH inhibitory potency vs. compound 1 [1]: 8- to 10 fold
